Laboratory results: patent US11066379B2 (THE TEXAS A&M UNIVERSITY SYSTEM, priority 2018, dated 2021)
Where two headings read alike, the source gives them in different places.

Assays:
[1] = system: SH-SY5Y cells; assay: Cellular toxicity in SH-SY5Y cells (MTT, 24 h); assay type: cell-based; settings: for cytotoxicity toward SH-SY5Y cells: 10-0.01 μM, in words; for IC50: Homo sapiens, SH-SY5Y, read-out: IC50 (cellular toxicity)
Excerpt: The MTT (3-[4,5-dimethylthiazol-2-yl]-2,5-diphenyltetrazoliumbromide) assay was used to determine the cytotoxicity of gracilin derivatives in T lymphocytes (Burton, J. D. Methods Mol. Med., 2005, 110, 69-78) and SH-SY5Y cells and the protective effect of these compounds against H2O2 insult in neuroblastoma cells as previously described (Leiros, M., Alonso, E., Sanchez, J. A., Rateb, M. E., Ebel, R., Houssen, W. E., Jaspars, M., Alfonso, A. and Botana, L. M. ACS Chem. Neurosci., 2014, S, 71-80). Human T lymphocytes were cultured in 24 well plates at the concentration of 2.5×10^6 cells/mL and exposed to different compound concentrations (0.01, 0.1, 1 and 10 μM) added to the culture medium. Human T cells were maintained in the presence of the pure compound at 37° C. in humidified 5% CO2/95% air atmosphere for 48 h.
(§1) SH-SY5Y cells were seeded in 96-well plates at a density of 2.5×10^5 cells/mL and allowed to adhere for 24 h. At first, cells were treated only with compounds at concentrations ranging from 10-0.01 μM for 24 h to determine their possible cytotoxic effects. Experiments were carried out three times. For neuroprotective experiments, cells were treated with compounds at non-toxic concentrations (1 μM→1 nM) and 150 μM H2O2 for 6 h. Briefly, cells were washed three times with saline solution and 200 μL of MTT (500 μg/mL) dissolved in saline buffer were added to each well. Following 1 h of incubation at 37° C., the cells were disaggregated with sodium dodecyl sulphate at 5%.
Absorbance of formazan crystals was measured at 595 nm with a spectrophotometer plate reader. Saponin was used as death control and its absorbance was subtracted from the other data. All experiments were performed four times.

[2] = system: SHSY5Y cells; assay: Neuroprotective effects summarised over all five assays (viability, TMRM, ROS, GSH, mPTP); assay type: cell-based, human; settings: 0.001, 0.01 or 0.1 μM; H2O2 challenge
Procedure: As described previously, neuroprotective agents can mediate their effects through inhibition of CypD, an isoform of CypA. […] All assays were performed at the indicated concentrations (0.001, 0.01, or 0.1 μM) based on initial cytotoxicity determined with SHSY5Y cells (Table 1).

[3] = molecular target: CypD (Homo sapiens, UniProt P30405); assay: CypD enzyme inhibition assay (PPIase activity); assay type: biochemical; settings: for IC50: CypD 1 nM; for selectivity for CypD over CypA: PPIase IC50 CypA vs CypD
Procedure: The inhibition of the peptidyl-prolyl cis-trans isomerase (PPIase) activity of compounds was determined by following the rate of hydrolysis of N-succinyl-Ala-Ala-Pro-Phe-pnitroanilide by chymotrypsin. CsA was used as positive control. The assay was performed as previously described (Yan, W., Qing, J., Mei, H., Nong, J., Huang, J., Zhu, J., Jiang, H., Liu, L., Zhang, L. and Li, J. Bioorg. Med. Chem. Lett., 2015, 25, 5682-5686) with small modifications. The assay buffer (20 mM Tris-HCl, 50 mM NaCl, pH 7.8), CypD (1 nM) and the compounds at concentrations ranging from 0.001 to 10 μM were pre-cooled at 4° C. for 1 h. After that time, chymotrypsin at 0.4 mg/mL in 1 mM HCl was added to each well. The reaction was initiated by the addition of the peptide (0.1 mg/mL in 500 mM LiCl in THF). The absorbance at 380 nm was monitored every 30 sec for 5 min with a spectrophotometer plate reader. The blank rates of hydrolysis (in absence of CypD) were subtracted from the rates in the presence of the enzyme. The half-maximal inhibitory concentration (IC50) was calculated by fitting the data with a log(inhibitor) vs. response model of GraphPad Prism 5.0 software. All experiments were performed four times.

[4] = system: SH-SY5Y cells; assay: Neuroprotection against H2O2 toxicity, cell viability by MTT; assay type: cell-based, human; settings: 150 μM H2O2 co-treatment 6 h; 0.01, 0.1 and 1 μM
Procedure: as §1, with “5%. Absorbance of formazan crystals was measured at 595 nm with a spectrophotometer plate reader. Saponin was used as death control and its absorbance was subtracted from the other data. All experiments were performed four times.” for “5%.”

[5] = system: SH-SY5Y cells; assay: Glutathione assay (Thiol Tracker Violet) after H2O2; assay type: cell-based, human; settings: 150 μM H2O2 co-treatment 6 h, two or more concentrations
Procedure: Glutathione (GSH) levels were determined using Thiol Tracker Violet dye, which reacts with reduced thiols in cells. Reduced glutathione represents the majority of intracellular free thiols, so this probe can be used to estimate its levels in cells. Measurements were performed following manufacturer's protocol. Cells were seeded in 96-well plates at 2.5×10^5 cells/mL for 24 h and treated with compounds at various concentrations (1 μM→1 nM) and 150 μM H2O2. After 6 h, SH-SY5Y cells were washed twice with PBS and loaded with 100 μL of prewarmed Thiol Tracker Violet dye (10 μM) for 30 min at 37° C. The fluorescence was measured at 404 nm excitation and emission at 526 nm. All experiments were performed four times.

Sequence of CypD (P30405 30-207): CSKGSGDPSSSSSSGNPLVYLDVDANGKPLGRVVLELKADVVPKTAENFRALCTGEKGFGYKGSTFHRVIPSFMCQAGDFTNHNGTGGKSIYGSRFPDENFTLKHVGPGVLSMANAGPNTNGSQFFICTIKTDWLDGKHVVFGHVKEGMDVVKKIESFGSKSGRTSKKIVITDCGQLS

SMILES | cytotoxicity toward SH-SY5Y cells ([1]; 24 h) | IC50 ([1]; 24 h incubation) | neuroprotective / antioxidant effects based on all five assays [2] | IC50 [3] | protection of cell viability against H2O2 insult [4] | GSH levels [5] | selectivity for CypD over CypA [3] | selectivity for CypD over CypA ([3]; listed as (−)-27a) | IC50 ([1]; 24 h)
CC(=O)O[C@H]1O[C@@H](OC(C)=O)[C@@H]2CC[C@](O)(C3(C)CCCC(C)(C)C3)C[C@H]12 (stereo partly drawn) [Compound 22, (1S,3R,3aS,5R,7aR)-5-hydroxy-5-(1,3,3-trimethylcyclohexyl)octahydroisobenzo-furan-1,3-diyl diacetate] | led to cell death at the higher concentrations tested | 6.5 µM | displayed significant neuroprotective effects | < 0.5 µM | protected cells against H2O2 insult at almost all concentrations | recovered GSH levels |  |  | 
CC(=O)O[C@@H]1OC[C@H]2C=C(C3(C)CCCCC3)CC[C@@H]12 [Compound 27a, (1S,3aS,7aR)-5-(1-methylcyclohexyl)-1,3,3a,6,7,7a-hexahydroisobenzofuran-1-yl acetate] | led to cell death at the higher concentrations tested |  | displayed significant neuroprotective effects | < 0.5 µM | protected cells against H2O2 insult at almost all concentrations | recovered GSH levels | about 3 fold | ~3 fold | 
CC(=O)O[C@H]1OC[C@@H]2C=C([C@@]3(C)CCCC(C)(C)C3)CC[C@H]12 [Compound 29a, (1R,3aR,7aS)-5-(1,3,3-trimethylcyclohexyl)-1,3,3a,6,7,7a-hexahydroisobenzofuran-1-yl acetate] | led to cell death at the higher concentrations tested |  | displayed significant neuroprotective effects | < 0.5 µM | protected cells against H2O2 insult at almost all concentrations | recovered GSH levels |  |  | 16.5 µM
